According to US10898592B2, “Compositions and methods for reducing the risk of post-imaging pancreatitis” (University Of Pittsburgh—Of The Commonwealth System Of …, priority 2015, dated 2021):
“Also recorded” adds a separate entry of the source. Each block holds one compound with its values, some of them ahead of it.

Assays:
NF-κB = test: NF-κB-luciferase activity assay, AR42J cells; type: cell-based; conditions: for effect on RC-induced NF-κB-luciferase levels: U73122 5 μM, 2-APB 100 μM, BAPTA 64 μM
Procedure: NF-κB-luciferase activity assay. AR42J cells were differentiated towards an acinar phenotype by administering dexamethasone (100 nM) for 48-72 hr^17. AR42J cells were infected with Ad-NF-κB luciferase 16 h prior to stimulation using a previously described method^12. Following a wash with DMEM/F12 medium, acinar cells were evenly distributed in a 48-well plate and incubated for 30 min at 37° C. They were incubated with RC at varying concentrations and times. NF-κB-luciferase was measured using a commercially available luciferase assay (Promega, Madison, Wis.). Briefly, cells were spun at 1,000 rpm for 5 min, washed with PBS, and lysed using reporter lysis 5× buffer (Promega, catalog no. E397A). Samples were vortexed and spun at 12,000×g for 2 min. The supernatant was plated, and luminescence was measured using a Synergy H1 plate reader (BioTek, Winooski, Vt.) and normalized to total […].

[1] = tested on: calcineurin (NFAT-luciferase); test: NFAT-luciferase activity assay (calcineurin activation), mouse primary acinar cells; type: cell-based; conditions: 2-APB 100 μM, 30 min pre-treatment; RC 9%
Procedure: (§1) NFAT-luciferase activity assay. Acinar cells were infected with Ad-NFAT-luciferase following a previously described procedure^10,15,16. The construct includes a luciferase gene placed downstream of an IL-4 promoter which contains nine tandem NFAT binding sites^10. Acinar cells were incubated with the NFAT-driven luciferase adenovirus for 1.5 hr prior to stimulation. All of the stated inhibitors were added for 30 min prior to stimulation with RC. NFAT-luciferase was measured using the luciferase assay system. Briefly, cells were spun at 1,000 rpm for 5 min, washed with PBS, and lysed using reporter lysis 5× buffer (Promega #E397A, Madison, Wis.). Samples were vortexed and spun at 12,000 g for 2 min. Supernatant was plated, and luminescence was measured using a Synergy H1 plate reader (BioTek, Winooski, Vt.) and normalized to total protein.

primary acinar cells = test: Cell necrosis assay (propidium iodide uptake), primary acinar cells; type: cell-based, mouse; conditions: for effect on RC (12%)-induced acinar cell injury (PI uptake): 6 hr incubation, U73122 5 μM, 2-APB 100 μM, BAPTA 64 μM, IKK-2 20 μM, FK506 24 μM, CsA 16 μM
Procedure: Cell necrosis assay. Acinar cells were incubated in a 48-well plate with 50 μg/ml of propidium iodide (PI) for 30 min prior to addition of RC. Fluorescence was measured at 536 nm excitation and 617 nm emission wavelengths over time a time course of up to 6 hr. Fluorescence was measured after cell lysis with 0.5% Triton-X 100 was used to normalize the results relative to total DNA.

AR42J cells = test: Ca^2+ signals (Fluo-4AM) in AR42J cells; type: cell-based; conditions: U73122 5 μM; 2-APB 100 μM
[2] = tested on: calcineurin (NFAT-luciferase); test: NFAT-luciferase activity assay, AR42J cells; type: cell-based; conditions: for effect on RC (6%)-induced NFAT-luciferase activity: pretreatment, FK506 24 μM, CsA 16 μM, U73122 5 μM, 2-APB 100 μM, BAPTA 64 μM
Procedure: as §1

[3] = high-affinity Ca^2+-sensing dye (Invitrogen); cited from earlier work
pancreatic NF-κB = test: Imaging pancreatic NF-κB bioluminescence in vivo (AAV6-NF-κB-luciferase); set-up: species or system mouse; conditions: RC-infused mice, 4 hr after surgery
Procedure: Imaging pancreatic NF-κB bioluminescence in vivo. An AAV6-NF-κB-luciferase reporter was constructed, expanded in HEK293 cells, and purified as previously described^18-20,39. A volume of 100 μl of virus (10^12 GCP/ml) was infused into the pancreaticobiliary duct at a rate of 10 μl/min using the same technique of RC infusion described above and recently published^21,39. After a 5-week recovery from the surgery, mice underwent PEP induction with or without FK506 treatment. At varying time points after the surgery, ranging from 2 to 36 hr, bioluminescence signals were obtained by first giving a subcutaneous injection of luciferin (150 μg/g body weight) in the scruff of the neck 15 min before the start of imaging. The mice were briefly anesthetized with isoflurane and placed in the supine position in a bioluminescent imaging chamber (IVIS spectrum imager; Perkin Elmer, Waltham, Mass.) for 3-10 min. Average pixel intensity was measured from a pancreatic region of interest (in the upper abdomen). Raw time points from each mouse were normalized to its individual baseline intensity at time zero.

[4] = tested on: IL-6, GADD45B, IL-1β gene expression; test: Real-time PCR of pancreatic head (IL-6, GADD45B, IL-1β); type: in vivo, mouse; conditions: RC exposure
Procedure: RNA extraction from whole pancreas and real-time PCR. Total RNA from the pancreatic head was obtained by homogenizing 40 mg of tissue in 2 ml of TRIzol reagent (Life Technologies; Grand Island N.Y.) at 4° C. and immediately flash frozen in liquid nitrogen. Samples were thawed on ice and centrifuged at 12,000×g for 10 min at 4° C. The supernatant was diluted with 200 μl of chloroform and centrifuged at 12,000×g for 15 min at 4° C. The upper aqueous phase was treated with 0.5 ml of isopropanol and centrifuged at 10,000×g for 10 min at 4° C. The pellet was resuspended with 150 μl of 75% ethanol and centrifuged at 7500×g for 5 min at 4° C. The pellet was air-dried and dissolved in 100 μl of nuclease-free water. Total RNA samples were used to generate cDNA using the iScript Advanced cDNA synthesis Kit (Bio Rad; Hercules, Calif.).
Quantitative real-time PCR (rtPCR) was performed to determine the relative expression of the cytokines IL-6 and IL-1β as well as the cell growth arrest and DNA-damage inducible gene GADD45B. The primer pairs for each as well as a GAPDH control were obtained as part of the PrimePCR-PreAMP SYBR Green Assay (Bio Rad; unique assay ID #qMmuCEP0054186, qMmuCID0005641, qMmuCEP0039581). rtPCR reactions were carried out in 20 μl volume reactions using the SsoAdvanced Universal Supermix SYBR Green system (Bio Rad). The reactions contained 1× SsoAdvanced Universal SYBR Green Supermix, 300 nM forward Primer, 300 nM reverse primer and 100 ng cDNA. rtPCR conditions were 95° C. for 10 sec and 60° C. for 30 sec for 35 cycles on a Bio Rad CFX96 Touch thermocycler (Bio Rad). Results for the expression of mRNA were normalized to expression of 18S rRNA and are represented relative to expression levels for each of the control groups.

pancreatic acinar cells = test: ATP level measurements in pancreatic acinar cells; type: cell-based, mouse; conditions: RC, concentration dependent
Procedure: ATP level measurements. Following isolation, pancreatic acinar cells were cultured in DMEM/F12 Medium (0.5 ml/well of a 48-well plate) at 37° C. water bath and treated with RC±FK506. Cells were collected at indicated time points and lysed in 100 μl lysis buffer (100 mM Tris pH 7.75, 4 mM EDTA). ATP levels were measured from 20 μl aliquots of acinar cell lysates using the ENLITEN luciferase/luciferin reagent (Promega catalog no. FF2021).

[5] = tested on: mouse pancreatic acinar cells; test: Ca^2+ signals (Fluo-4AM) in mouse pancreatic acinar cells; type: cell-based; conditions: RC 25% and 33%
Procedure: Detection and analysis of cellular Ca^2+ signals from mouse and human acini. Acinar cells were loaded at room temperature with the high-affinity Ca^2+-sensing dye Fluo-4AM (Kd=300 nM; Invitrogen). Acinar cells were plated on acid-washed glass coverslips and then mounted on a perifusion chamber. Thereupon, they were stimulated at room temperature with varying concentrations of RC (17-50%) diluted in HEPES buffer. Carbachol (1 mM) was given at the end of each experiment to confirm that the cells were intact and could mobilize intracellular Ca^2+ stores. A Zeiss LSM710 laser scanning confocal microscope was used with a 20×, 1.4 numerical aperture objective. The dye was excited at 488 nm wavelength, and emission signals of >515 nm were collected every 2 sec. Fluorescence from individual acinar cells was recorded. Analysis of recordings was performed using ImageJ software (NIH, Bethesda, Md.), and mean fluorescence over time in each region was graphed.
Preparation of mouse pancreatic acini for Ca^2+ imaging. Groups of pancreatic acinar cells were isolated as previously described^26,69, with minor modifications. […]

pancreas = test: Intra-ductal RC infusion (PEP model) in mice: histological severity, serum amylase; type: in vivo, mouse
Text: Intra-ductal RC infusion in mice. The procedure for retrograde infusion into the CBD and pancreatic duct has been described before^14. Briefly, Swiss Webster mice were anesthetized with isoflurane. A midline incision was made to reveal the abdominal cavity. The duodenum was flipped to reveal its distal side and held in place by ligatures. […] needle was inserted through the anti-mesenteric aspect of the duodenum to cannulate the CBD. A small bull dog clamp was applied to the distal CBD (near the duodenum) to prevent back flow of the infusate into the duodenal lumen and to hold the cannula in place. A larger bull dog clamp was applied to the proximal CBD (near the liver) to prevent infusion into the liver and thus to direct flow to the pancreatic duct. Total volumes of 50-100 μl of iohexol, iopamidol, or normal saline (NS) were infused at 10-20 μl per min for 5 min using a P33 perfusion pump (Harvard Apparatus, Holliston, Mass.). Upon completion of the infusion, the bull dog clamps were released. The exterior abdominal wound was closed using 7 mm wound clips, and a single injection of buprenorphine (0.075 mg/kg) was given immediately after the surgery. Mice recovered on a heating pad for 30 min after the procedure. They were given free access to food and water after the surgery. Pancreas tissue preparation, histological grading, and serum amylase. The pancreas, duodenum, and spleen were fixed at room temperature for 24 hr in 4% paraformaldehyde. Paraffin-embedded sections were stained with hematoxylin an eosin (HE) and graded using a 20× objective over 10 separate fields in a blinded fashion. Pancreas tissue was graded for edema, inflammatory infiltrate, and necrosis as described by Wildi et al.^67. Whole blood samples were centrifuged at 1500×g for 5 min at 4° C. Serum amylase was measured using a Phadebas kit (Amersham Pharmacia, Rochester N.Y.) as previously described^68.

NRK-52E renal cell line = conditions: long incubation (4 hr); cited from earlier work

SMILES: NCCOB(c1ccccc1)c1ccccc1 [2-APB]
effect on RC-induced NF-κB-luciferase levels (NF-κB): reduced
reduction of RC-induced NFAT-luciferase rise [1]: 47%
effect on RC (12%)-induced acinar cell injury (PI uptake) (primary acinar cells): prevented
effect on RC (25%)-induced Ca^2+ signals (AR42J cells): prevented
effect on RC (6%)-induced NFAT-luciferase activity [2]: prevented

SMILES: CC(=O)OCOC(=O)CN(CC(=O)OCOC(C)=O)c1ccc(C)cc1OCCOc1cc(-c2c3cc(F)c(=O)cc-3oc3cc(OCOC(C)=O)c(F)cc23)ccc1N(CC(=O)OCOC(C)=O)CC(=O)OCOC(C)=O [Fluo-4AM]
Kd [3]: 0.3 µM

SMILES: CCCCCCCCCCC[C@@H](C[C@@H]1OC(=O)[C@H]1CCCCCC)OC(=O)[C@H](CC(C)C)NC=O [Orlistat]
effect on activation of NF-κB with RC (NF-κB; Orlistat pretreatment (50-100 μM), RC 16%): did not significantly reduce

peak in pancreatic NF-κB luciferase compared to NS sham (pancreatic NF-κB): 13 fold
expression of GADD45B [4]: upregulated
expression of IL-1β [4]: upregulated
expression of IL-6 [4]: upregulated
ATP levels (pancreatic acinar cells): depletion of ATP levels
severity of pancreatitis at pH 6 compared to pH 7 (pancreas; RC buffered with 10 mM HEPES, pH clamped at 6): no increased severity of pancreatitis
increase in histological severity above the intra-ductal NS sham control (pancreas; intraductal RC at doubled rate and volume, pancreatic head 24 hr after procedure): 59%
serum amylase increase (pancreas; intraductal RC, 6 hr post-procedure): at least 50%
SMILES: CC(=O)N(CC(O)CO)c1c(I)c(C(=O)NCC(O)CO)c(I)c(C(=O)NCC(O)CO)c1I (centres unmarked) [RC, iohexol]
amplitude of Ca^2+ signal above baseline [5]: 400%
propidium iodide (PI) uptake (primary acinar cells; RC exposure for 6 hr): concentration-dependent increase

SMILES: COc1ccc2c(c1)CC[C@@H]1[C@@H]2CC[C@]2(C)[C@@H](NCCCCCCN3C(=O)C=CC3=O)CC[C@@H]12 [U73122]
effect on RC-induced NF-κB-luciferase levels (NF-κB): reduced
effect on RC (12%)-induced acinar cell injury (PI uptake) (primary acinar cells): prevented
effect on RC (25%)-induced Ca^2+ signals (AR42J cells): prevented
effect on RC (6%)-induced NFAT-luciferase activity [2]: prevented

SMILES: C[C@H](O)C(=O)Nc1c(I)c(C(=O)NC(CO)CO)c(I)c(C(=O)NC(CO)CO)c1I [iopamidol]
NF-κB-luciferase on exposure to radiocontrast (NF-κB; AR42J cells, 6 hr): induced NF-κB activation in a concentration-dependent manner
induction of pancreatitis by intraductal infusion (histological severity, serum amylase, serum IL-6) (pancreas; iopamidol (Isovue 300) compared with iohexol, 24 hr): similar; also recorded: induces pancreatitis
calcineurin/NFAT activation on exposure to radiocontrast ([2]; AR42J cells): induced NFAT activation in a concentration-dependent manner

SMILES: O=C(NCC(O)CO)c1c(I)c(C(=O)NCC(O)CO)c(I)c(N(CCO)C(=O)CO)c1I (centres unmarked) [ioversol]
baseline cytosolic Ca^2+ levels (NRK-52E renal cell line): caused a slow, globalized increase in baseline cytosolic Ca^2+ levels

SMILES: OC[C@@H](O)[C@@H](O)[C@H](O)[C@H](O)CO [mannitol]
NF-κB activation under hyperosmolar control (NF-κB; mannitol at concentrations equimolar to RC): failed to cause an increase
